Results on one molecule are retold here after paper PMC5268383, “Inhibition of STAT3 by Anticancer Drug Bendamustine” (PLoS ONE, 2017).

Molecules are shown by their SMILES.

In experiment [1] the test system is MDA-MB-468 cells (high P-STAT3). In words: WST cell proliferation assay, MDA-MB-468. It is filed as cell-based, human. The conditions noted are these: 0.1-100 μM, 48 h, WST-8. Here is the method:
(§1) Cells were plated in a 96-well tissue culture plate (1000 cells per well) and incubated for 48 h. After incubation, the cells were treated with vehicle, 0.1–100 μM BENDA, or HP2 for 48 h. Samples were assayed in triplicate. After incubation, WST-8 solution (10 μL; Dojindo Molecular Technologies, Rockville, MD, USA) was added to each well and incubated at 37°C for 4 h, and the absorbance was read at 450 nm.
Background: Tetrazolium dyes change colour on reduction, which living cells bring about.

Experiment [2] addresses T1, cellular STAT3 in MDA-MB-468 cells (Homo sapiens, UniProt P40763).
T1 construct: endogenous in cells; host or cells: MDA-MB-468
Description: Pull-down assay using Bio-BENDA, anti-STAT3 immunoprecipitation. It is filed as cell-based. The following applies: 50 μM Bio-BENDA plus excess free drug, 4 h. Here is the method:
MDA-MB-468 cells were treated with biotinylated BENDA (Bio-BENDA) in the presence or absence of an excess amount of free drugs for 4 h and then lysed in PhosphoSafe™ Extraction Reagent (Merck, Darmstadt, Germany). Lysate (200 μL) was precleared with a mixture of Protein G Plus/Protein A Agarose Suspension (EMD Millipore, Billerica, MA, USA) for 1 h at 4°C and protein A and G agarose were removed by centrifugation at 13,000 rpm for 10 min. The lysate (200 μL) was immunoprecipitated with STAT3 antibody (1 μL) overnight at 4°C on a shaker and the immunocomplex was captured by the addition of a Protein G Plus/Protein A Agarose Suspension (30 μL) slurry for 1 h at 4°C. Samples were washed five times with lysis buffer and then boiled four times in SDS-PAGE sample buffer and run on an SDS-PAGE gel. The protein was transferred to a nitrocellulose membrane. The membranes were blocked in 5% skim milk in TBS/0.1% Tween 20. They were then incubated with streptavidin-HRP diluted at 1:2000 in 1.5% skim milk in TBS (pH7.4)/0.1% Tween 20 overnight at 4°C. Immunoblots were developed by using a chemiluminescent substrate.

The target of experiment [3] is T2, recombinant human STAT3 SH2 domain (Homo sapiens, UniProt P40763).
T2 construct: Full-length cDNAs were obtained from a human cDNA library by PCR; Avi-tag (biotinylated in BirA-BL21) (N); made in house; host or cells: Escherichia coli BirA-BL21
T2 sequence (P40763 whole entry, the tested form may be a part): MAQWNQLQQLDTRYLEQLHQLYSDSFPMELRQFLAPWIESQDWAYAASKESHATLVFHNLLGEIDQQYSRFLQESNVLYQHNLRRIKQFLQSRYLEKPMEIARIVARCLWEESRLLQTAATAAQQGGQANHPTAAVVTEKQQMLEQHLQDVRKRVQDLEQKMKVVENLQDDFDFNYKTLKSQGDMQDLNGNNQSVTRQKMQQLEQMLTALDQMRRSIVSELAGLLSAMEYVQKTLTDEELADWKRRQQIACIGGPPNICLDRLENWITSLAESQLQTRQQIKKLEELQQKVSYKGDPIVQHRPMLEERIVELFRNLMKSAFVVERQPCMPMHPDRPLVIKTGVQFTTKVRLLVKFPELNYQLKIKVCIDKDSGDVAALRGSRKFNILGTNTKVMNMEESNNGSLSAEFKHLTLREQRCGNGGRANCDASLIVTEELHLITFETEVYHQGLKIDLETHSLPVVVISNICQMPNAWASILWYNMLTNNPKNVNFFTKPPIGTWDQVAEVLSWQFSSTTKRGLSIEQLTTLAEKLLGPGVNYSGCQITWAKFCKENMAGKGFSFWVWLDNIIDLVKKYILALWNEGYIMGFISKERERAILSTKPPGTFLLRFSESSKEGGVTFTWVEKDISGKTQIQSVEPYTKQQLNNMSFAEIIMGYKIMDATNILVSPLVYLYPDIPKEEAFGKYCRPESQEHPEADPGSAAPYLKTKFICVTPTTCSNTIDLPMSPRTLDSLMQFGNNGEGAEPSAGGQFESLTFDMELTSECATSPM
Description: AlphaScreen SH2 binding assay, STAT3. The following applies: AlphaScreen, 50 nM protein, FITC-GpYLPQTV; read-out: IC50, inhibition of STAT3-SH2 binding to phosphotyrosine peptide. Here is the method:
AlphaScreen assays were performed in a final reaction volume of 25 μL of the assay buffer, containing 10 mM HEPES-NaOH (pH 7.4), 50 mM NaCl, 1 mM EDTA (pH 8.0), 0.1% NP-40, and 10 ng/mL BSA in a 96-well microtiter plate at 25°C. The labeled Phospho-Tyr (pTyr) peptide probe was 5-carboxyfluorescein (FITC)-GpYLPQTV for STAT3, FITC-GpYDKPHVL for STAT1, and FITC-PSpYVNVQN for Grb2. A DMSO solution of BENDA was incubated with 50 nM of each SH2-containing protein for 15 min, 50 nM of the corresponding FITC-pTyr peptide was added, and the mixture was incubated for 90 min. Streptavidin-coated donor beads and anti-FITC acceptor beads were added and incubated for 90 min before the signals were measured with an Envision Xcite plate reader (PerkinElmer Life Sciences, Waltham, MA, USA).
For orientation: In Alpha technology, singlet oxygen from a donor bead excites a nearby acceptor bead.

For experiment [4], the target named is T3, STAT3-CFP / STAT3-YFP in HEK293 cells (Homo sapiens, UniProt P40763).
T3 construct: expressed in transfected cells; host or cells: HEK293
T3 sequence (P40763 whole entry): as the sequence (P40763 whole entry, the tested form may be a part) above
Description: FRET assay of STAT3 dimerization. The conditions noted are these: HEK293, 10, 20 or 50 μM, pretreatment before 50 ng/mL IL-6 stimulation. It is filed as cell-based. As to the method:
The expression vectors for the fusion proteins STAT3-CFP and STAT3-YFP were prepared by the addition of STAT3 cDNA to pAmCyan1-N1 and pZsyellow1-N1. The vector mixture (1:1) was transfected into HEK293 cells with Lipofectamine 2000. The cells were cultured with 2% FBS DMEM for 48 h in a 96-well microtiter plate, treated with 0, 10, 20, or 50 μM BENDA or HP2 in a final DMSO concentration of 0.2% for 24 h, and then stimulated with 50 ng/mL IL-6 for a further 1 h. Fluorescence signals were measured (SpectraMax M5SK). The signals measured by FRET (excitation/emission: 436/528 nm) were corrected for crosstalk signals from cyan (excitation/emission: 436/488 nm) and yellow (excitation/emission: 517/528 nm).

A further experiment concerns the target T4, rhSTAT3 (Homo sapiens, UniProt P40763).
T4 construct: Full-length cDNAs were obtained from a human cDNA library by PCR; Avi-tag (biotinylated in BirA-BL21) (N); made in house; host or cells: Escherichia coli BirA-BL21
Description: Competition assay with cysteine-blocking reagent Alexa Fluor 488 C5 maleimide. In kind it is binding. The following applies: 50 or 100 μM compound, 2 h. As to the method:
rhSTAT3 (0.89 μM) in 100 mM HEPES was incubated with 10 μM Alexa Fluor 488 C5 maleimide (Invitrogen, Paisley, UK), a thiol-reactive probe, in the presence or absence of 50 or 100 μM BENDA or HP2 for 2 h at room temperature. Samples were diluted in SDS-PAGE sample buffer without boiling or 2-mercaptoethanol and run on an SDS-PAGE gel. The protein was transferred to a nitrocellulose membrane and then blotted with Ni-HRP. The Alexa-labeled rhSTAT3 was analyzed by fluorescence (excitation/emission: 493/516 nm) and western blotting with Ni-HRP.

For experiment [5], the target named is T5, STAT3-DNA complex (c-myc promoter) in MDA-MB-468 cells (Homo sapiens, UniProt P40763).
T5 construct: endogenous in cells; host or cells: MDA-MB-468
T5 sequence (P40763 2-770 limits assumed, one chain of several): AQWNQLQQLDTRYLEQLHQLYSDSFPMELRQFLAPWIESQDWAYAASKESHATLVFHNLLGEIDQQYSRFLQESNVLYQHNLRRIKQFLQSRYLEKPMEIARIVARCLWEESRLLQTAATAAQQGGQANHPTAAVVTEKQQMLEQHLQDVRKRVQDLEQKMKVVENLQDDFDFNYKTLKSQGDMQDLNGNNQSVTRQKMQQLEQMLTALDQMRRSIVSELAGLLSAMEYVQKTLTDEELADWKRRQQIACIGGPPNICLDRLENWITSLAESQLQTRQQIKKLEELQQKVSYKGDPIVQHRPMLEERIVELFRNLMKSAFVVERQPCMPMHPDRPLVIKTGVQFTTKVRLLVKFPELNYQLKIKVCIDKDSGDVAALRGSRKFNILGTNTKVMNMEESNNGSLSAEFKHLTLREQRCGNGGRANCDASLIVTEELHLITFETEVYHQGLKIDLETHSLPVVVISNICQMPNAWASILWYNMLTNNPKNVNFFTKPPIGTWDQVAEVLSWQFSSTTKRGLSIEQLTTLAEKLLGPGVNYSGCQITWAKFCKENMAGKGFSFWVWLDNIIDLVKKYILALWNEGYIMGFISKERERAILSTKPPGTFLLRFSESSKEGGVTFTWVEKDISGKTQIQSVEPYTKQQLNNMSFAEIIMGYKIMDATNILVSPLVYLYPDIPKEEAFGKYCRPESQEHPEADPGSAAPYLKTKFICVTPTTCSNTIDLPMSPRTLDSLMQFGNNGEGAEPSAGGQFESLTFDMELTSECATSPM
Description: ChIP assay, c-myc promoter binding by STAT3. It is filed as cell-based. The following applies: MDA-MB-468, 8 h; BENDA 25, 50, 100 μM, HP2 50, 100 μM. As to the method: A ChIP assay was performed with an ExactaChIP Human/Mouse STAT3 ChIP kit (R&D Systems, Minneapolis, MN, USA). MDA-MB-468 cancer cells were fixed with 1% formaldehyde and treated with the lysis buffer. After sonication, anti-STAT3 antibody or normal mouse IgG was added to the extract, followed by precipitation with Protein G Plus/Protein A Agarose Suspension. The eluted DNA fraction was used for PCR with human c-myc primers.

Experiment [6] concerns the target T6, nuclear STAT3 of MDA-MB-468 cells (Homo sapiens, UniProt P40763).
T6 construct: endogenous in cells; host or cells: MDA-MB-468
In words: STAT3 DNA binding assay (TransAM ELISA). The conditions noted are these: MDA-MB-468, 24 h; BENDA 25, 50, 100 μM, HP2 100 μM. It is filed as cell-based. Here is the method:
The DNA-binding activity of STAT3 was evaluated with a TransAM ELISA kit (Active Motif, Carlsbad, CA, USA). The assay and nuclear extract preparation were performed according to the manufacturer’s instructions. Heat-denatured nuclear extract was used as a negative control. The nuclear extract (20 μg) was added to each well of a 96-well microtiter plate coated with immobilized oligonucleotides containing the STAT3 consensus binding site and incubated at room temperature for 1 h. They were incubated with anti-STAT3 antibody for 1 h at room temperature, followed by HRP-conjugated antibody for 1 h at room temperature. The developing solution was added, the reaction was terminated by the addition of stop solution, and the absorbance was measured at 450 nm with a reference wavelength of 655 nm (SpectraMax M5SK, Molecular Devices, Sunnyvale, CA, USA).

The subject of experiment [7] is MDA-MB-453 cells (low P-STAT3). In words: WST cell proliferation assay, MDA-MB-453. In kind it is cell-based, human. The following applies: 0.1-100 μM, 48 h, WST-8. Here is the method: as §1

T6 sequence (P40763 2-770 limits assumed): as the sequence (P40763 2-770 limits assumed, one chain of several) above
T1 sequence (P40763 2-770 limits assumed): as the sequence (P40763 2-770 limits assumed, one chain of several) above
T4 sequence (P40763 whole entry): as the sequence (P40763 whole entry, the tested form may be a part) above

In general, IC50 refers to the concentration that gives 50% inhibition. For `Cn1c(CCCC(=O)O)nc2cc(N(CCO)CCO)ccc21` [HP2, dihydroxy bendamustine], the “Inhibition of proliferation of MDA-MB-468 cells” value in experiment [1] is reported as “did not inhibit proliferation”. Further, the “Competition of Bio-BENDA STAT3 band intensity by excess free drug” value in experiment [2] is reported as “no reduction”. The IC50 in experiment [3] was > 100 µM. For the same molecule, the “Effect on FRET signals (STAT3 dimerization)” value in experiment [4] is listed as “unchanged”. In addition, on rhSTAT3, the “Effect on fluorescence intensity of Alexa-labeled rhSTAT3” value is on record as “hardly observed”. In addition, the “Amplified c-myc promoter band in STAT3 ChIP” value in experiment [5] is given as “clearly detected”. Also, the “Inhibition of STAT3 binding to oligonucleotides containing STAT3 consensus binding site” value in experiment [6] was “did not”. For the same molecule, in experiment [7], the “Inhibition of proliferation of MDA-MB-453 cells” value was “did not inhibit proliferation”.
